Data as given in ChEMBL document CHEMBL1151757, “Synthesis, radiosynthesis, and biological evaluation of fluorine-18-labeled 2beta-carbo(fluoroalkoxy)-3beta-(3'-((Z)-2-haloethenyl)phenyl)nortropanes: candidate radioligands for in vivo imaging of the serotonin transporter with positron emission tomography” (J Med Chem, 2008).

Legend:
[1] = Drug uptake in awake rhesus monkey brain frontal lobe after 115 mins postinjection; format: ADME, organism-based, Macaca mulatta; details: in vivo
[2] = Protein binding in anesthetized cynomolgus monkey plasma after 5 mins postinjection; format: ADME, organism-based, Macaca fascicularis; details: read-out: PPB (converted)
[3] = Drug uptake in awake rhesus monkey brain medulla after 1.25 mins postinjection; format: ADME, organism-based, Macaca mulatta; details: in vivo, 75 s
[4] = Ratio of drug uptake in putamen to cerebellum in awake rhesus monkey after 4.5 mins postinjection; format: ADME, organism-based, Macaca mulatta; details: in vivo, 0.075 h
[5] = Ratio of drug uptake in thalamus to cerebellum in awake rhesus monkey after 75 mins postinjection; format: ADME, organism-based, Macaca mulatta; details: in vivo, 1.25 h
[6] = Ratio of drug uptake in thalamus to cerebellum in awake rhesus monkey after 10.5 mins postinjection; format: ADME, organism-based, Macaca mulatta; details: in vivo, 0.175 h
[7] = Protein binding in anesthetized cynomolgus monkey plasma after 120 mins postinjection; format: ADME, organism-based, Macaca fascicularis; details: read-out: PPB (converted)
[8] = Drug uptake in awake rhesus monkey brain pons after 1.25 mins postinjection; format: ADME, organism-based, Macaca mulatta; details: in vivo, 75 s
[9] = Drug uptake in awake rhesus monkey brain midbrain after 13.5 mins postinjection; format: ADME, organism-based, Macaca mulatta; details: in vivo, 0.225 h
[10] = Drug uptake in awake rhesus monkey brain thalamus after 1.25 mins postinjection; format: ADME, organism-based, Macaca mulatta; details: in vivo, 75 s
[11] = Protein binding in anesthetized cynomolgus monkey plasma after 2 mins postinjection; format: ADME, organism-based, Macaca fascicularis; details: read-out: PPB (converted)
[12] = Ratio of drug uptake in frontal lobe to cerebellum in awake rhesus monkey after 75 mins postinjection; format: ADME, organism-based, Macaca mulatta; details: in vivo, 1.25 h
[13] = Ratio of drug uptake in midbrain to cerebellum in awake rhesus monkey after 105 mins postinjection; format: ADME, organism-based, Macaca mulatta; details: in vivo, 1.75 h
[14] = Drug uptake in awake rhesus monkey brain frontal lobe after 1.75 mins postinjection; format: ADME, organism-based, Macaca mulatta; details: in vivo, 105 s
[15] = Protein binding in anesthetized cynomolgus monkey plasma after 30 mins postinjection; format: ADME, organism-based, Macaca fascicularis; details: read-out: PPB (converted)
[16] = Protein binding in anesthetized cynomolgus monkey plasma after 15 mins postinjection; format: ADME, organism-based, Macaca fascicularis; details: read-out: PPB (converted)
[17] = Ratio of drug uptake in caudate to cerebellum in awake rhesus monkey after 17.5 mins postinjection; format: ADME, organism-based, Macaca mulatta; details: in vivo
[18] = Drug uptake in awake rhesus monkey brain frontal lobe after 2.25 mins postinjection; format: ADME, organism-based, Macaca mulatta; details: in vivo, 135 s
[19] = Drug uptake in awake rhesus monkey brain frontal lobe after 1.25 mins postinjection; format: ADME, organism-based, Macaca mulatta; details: in vivo, 75 s
[20] = Ratio of drug uptake in frontal lobe to cerebellum in awake rhesus monkey after 45 mins postinjection; format: ADME, organism-based, Macaca mulatta; details: in vivo, 0.75 h
[21] = Drug uptake in awake rhesus monkey brain pons after 0.25 mins postinjection; format: ADME, organism-based, Macaca mulatta; details: in vivo, 15 s
[22] = Metabolic stability in anesthetized cynomolgus monkey plasma after 180 mins postinjection; format: ADME, organism-based, Macaca fascicularis; details: read-out: Stability
[23] = Ratio of drug uptake in caudate to cerebellum in awake rhesus monkey after 105 mins postinjection; format: ADME, organism-based, Macaca mulatta; details: in vivo, 1.75 h
[24] = Drug uptake in awake rhesus monkey brain pons after 4.5 mins postinjection; format: ADME, organism-based, Macaca mulatta; details: in vivo, 0.075 h
[25] = Drug uptake in awake rhesus monkey brain medulla after 17.5 mins postinjection; format: ADME, organism-based, Macaca mulatta; details: in vivo
[26] = Ratio of drug uptake in frontal lobe to cerebellum in awake rhesus monkey after 55 mins postinjection; format: ADME, organism-based, Macaca mulatta; details: in vivo
[27] = Drug uptake in awake rhesus monkey brain medulla after 0.25 mins postinjection; format: ADME, organism-based, Macaca mulatta; details: in vivo, 15 s
[28] = Drug uptake in awake rhesus monkey brain putamen after 1.25 mins postinjection; format: ADME, organism-based, Macaca mulatta; details: in vivo, 75 s
[29] = Drug uptake in anesthetized cynomolgus monkey brain cerebellum after 187.5 mins postinjection; format: ADME, organism-based, Macaca fascicularis; details: in vivo, 3.125 h
[30] = Drug uptake in anesthetized cynomolgus monkey brain occipital lobe after 207.5 mins postinjection; format: ADME, organism-based, Macaca fascicularis; details: in vivo
[31] = Drug uptake in anesthetized cynomolgus monkey brain frontal lobe after 202.5 mins postinjection; format: ADME, organism-based, Macaca fascicularis; details: in vivo, 3.375 h
[32] = Drug uptake in anesthetized cynomolgus monkey brain frontal lobe after 192.5 mins postinjection; format: ADME, organism-based, Macaca fascicularis; details: in vivo
[33] = Drug uptake in anesthetized cynomolgus monkey brain occipital lobe after 182.5 mins postinjection; format: ADME, organism-based, Macaca fascicularis; details: in vivo
[34] = Ratio of drug uptake in putamen to cerebellum in awake rhesus monkey after 0.8 mins postinjection; format: ADME, organism-based, Macaca mulatta; details: in vivo, 48 s
[35] = Drug uptake in awake rhesus monkey thalamus after 1.8 mins postinjection; format: ADME, organism-based, Macaca mulatta; details: in vivo, 0.03 h
[36] = Drug uptake in awake rhesus monkey medulla after 0.8 mins postinjection; format: ADME, organism-based, Macaca mulatta, Medulla of organ; details: in vivo, 48 s
[37] = Ratio of drug uptake in occipital lobe to cerebellum in awake rhesus monkey after 10.5 mins postinjection; format: ADME, organism-based, Macaca mulatta; details: in vivo, 0.175 h
[38] = Drug uptake in awake rhesus monkey thalamus after 0.3 mins postinjection; format: ADME, organism-based, Macaca mulatta; details: in vivo, 0.005 h
[39] = Drug uptake in awake rhesus monkey midbrain after 1.8 mins postinjection; format: ADME, organism-based, Macaca mulatta; details: in vivo, 0.03 h
[40] = Ratio of drug uptake in frontal lobe to cerebellum in awake rhesus monkey after 4.5 mins postinjection; format: ADME, organism-based, Macaca mulatta; details: in vivo, 0.075 h
[41] = Drug uptake in awake rhesus monkey occipital lobe after 35 mins postinjection; format: ADME, organism-based, Macaca mulatta; details: in vivo
[42] = Drug uptake in awake rhesus monkey putamen after 0.3 mins postinjection; format: ADME, organism-based, Macaca mulatta; details: in vivo, 0.005 h
[43] = Ratio of drug uptake in medulla to cerebellum in anesthetized cynomolgus monkey after 235 mins postinjection; format: ADME, organism-based, Macaca fascicularis; details: in vivo
[44] = Ratio of drug uptake in pons to cerebellum in awake rhesus monkey after 55 mins postinjection; format: ADME, organism-based, Macaca mulatta; details: in vivo
[45] = Drug uptake in awake rhesus monkey occipital lobe after 2.3 mins postinjection; format: ADME, organism-based, Macaca mulatta; details: in vivo, 138 s
[46] = Ratio of drug uptake in occipital lobe to cerebellum in awake rhesus monkey after 4.5 mins postinjection; format: ADME, organism-based, Macaca mulatta; details: in vivo, 0.075 h
[47] = Ratio of drug uptake in frontal lobe to cerebellum in awake rhesus monkey after 0.8 mins postinjection; format: ADME, organism-based, Macaca mulatta; details: in vivo, 48 s
[48] = Ratio of drug uptake in caudate to cerebellum in awake rhesus monkey after 10.5 mins postinjection; format: ADME, organism-based, Macaca mulatta; details: in vivo, 0.175 h
[49] = Ratio of drug uptake in caudate to cerebellum in awake rhesus monkey after 0.8 mins postinjection; format: ADME, organism-based, Macaca mulatta; details: in vivo, 48 s
[50] = Drug uptake in awake rhesus monkey occipital lobe after 85 mins postinjection; format: ADME, organism-based, Macaca mulatta; details: in vivo
[51] = Drug uptake in awake rhesus monkey occipital lobe after 105 mins postinjection; format: ADME, organism-based, Macaca mulatta; details: in vivo, 1.75 h
[52] = Ratio of drug uptake in pons to cerebellum in awake rhesus monkey after 0.3 mins postinjection; format: ADME, organism-based, Macaca mulatta; details: in vivo, 0.005 h
[53] = Drug uptake in awake rhesus monkey midbrain after 2.3 mins postinjection; format: ADME, organism-based, Macaca mulatta; details: in vivo, 138 s
[54] = biological target: Sodium-dependent noradrenaline transporter (Homo sapiens, UniProt P23975); experiment: Displacement of [3H]nisoxetine from human NET transfected in human HEK293 cells; format: cell-based
[55] = Drug uptake in awake rhesus monkey frontal lobe after 1.3 mins postinjection; format: ADME, organism-based, Macaca mulatta; details: in vivo, 78 s
[56] = Ratio of drug uptake in midbrain to cerebellum in awake rhesus monkey after 45 mins postinjection; format: ADME, organism-based, Macaca mulatta; details: in vivo, 0.75 h
[57] = Ratio of drug uptake in midbrain to cerebellum in awake rhesus monkey after 4.5 mins postinjection; format: ADME, organism-based, Macaca mulatta; details: in vivo, 0.075 h
[58] = Ratio of drug uptake in midbrain to cerebellum in awake rhesus monkey after 115 mins postinjection; format: ADME, organism-based, Macaca mulatta; details: in vivo
[59] = Ratio of drug uptake in occipital lobe to cerebellum in awake rhesus monkey after 13.5 mins postinjection; format: ADME, organism-based, Macaca mulatta; details: in vivo, 0.225 h
[60] = Drug uptake in awake rhesus monkey occipital lobe after 65 mins postinjection; format: ADME, organism-based, Macaca mulatta; details: in vivo
[61] = Drug uptake in awake rhesus monkey midbrain after 1.3 mins postinjection; format: ADME, organism-based, Macaca mulatta; details: in vivo, 78 s
[62] = Ratio of drug uptake in thalamus to cerebellum in awake rhesus monkey after 2.8 mins postinjection; format: ADME, organism-based, Macaca mulatta; details: in vivo, 168 s
[63] = Drug uptake in awake rhesus monkey occipital lobe after 4.5 mins postinjection; format: ADME, organism-based, Macaca mulatta; details: in vivo, 0.075 h
[64] = Drug uptake in awake rhesus monkey putamen after 1.8 mins postinjection; format: ADME, organism-based, Macaca mulatta; details: in vivo, 0.03 h
[65] = Drug uptake in awake rhesus monkey occipital lobe after 25 mins postinjection; format: ADME, organism-based, Macaca mulatta; details: in vivo

Sodium-dependent noradrenaline transporter, sequence (P23975 whole entry): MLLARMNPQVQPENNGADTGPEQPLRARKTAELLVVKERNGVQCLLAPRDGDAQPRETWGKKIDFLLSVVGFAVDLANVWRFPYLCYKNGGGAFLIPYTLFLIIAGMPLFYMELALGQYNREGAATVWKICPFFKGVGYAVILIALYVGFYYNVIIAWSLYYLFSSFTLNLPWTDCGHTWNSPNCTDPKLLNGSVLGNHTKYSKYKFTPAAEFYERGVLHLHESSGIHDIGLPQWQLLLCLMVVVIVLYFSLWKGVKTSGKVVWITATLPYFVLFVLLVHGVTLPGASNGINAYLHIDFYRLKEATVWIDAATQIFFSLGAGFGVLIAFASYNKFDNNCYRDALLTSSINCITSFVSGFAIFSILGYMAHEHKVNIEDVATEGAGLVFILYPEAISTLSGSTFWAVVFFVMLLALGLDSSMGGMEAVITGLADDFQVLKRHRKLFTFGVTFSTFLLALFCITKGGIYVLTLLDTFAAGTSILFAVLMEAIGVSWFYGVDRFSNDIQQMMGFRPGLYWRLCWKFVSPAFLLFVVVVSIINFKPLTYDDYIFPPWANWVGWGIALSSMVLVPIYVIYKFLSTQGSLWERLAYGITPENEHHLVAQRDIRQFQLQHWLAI

SMILES: O=C(OCC[18F])C1C2CCC(CC1c1cccc(/C=C\I)c1)N2 (stereo not given)
- Drug uptake [1]: 0.1
- fraction unbound at 5 min [2]: 0.925
- Drug uptake [3]: 0.01
- Ratio [4]: 1.3
- Ratio [5]: 1.5
- Ratio [6]: 1.4
- fraction unbound at 2 h [7]: 0.934
- Drug uptake [8]: 0.01
- Drug uptake [9]: 0.09
- Drug uptake [10]: 0.01
- fraction unbound at 2 min [11]: 0.944
- Ratio [12]: 1.1
- Ratio [13]: 1.7
- Drug uptake [14]: 0.02
- fraction unbound at 0.5 h [15]: 0.916
- fraction unbound at 0.25 h [16]: 0.932
- Ratio [17]: 1.2
- Drug uptake [18]: 0.02
- Drug uptake [19]: 0
- Ratio [20]: 1
- Drug uptake [21]: 0
- remaining at 3 h [22]: 13%
- Ratio [23]: 1.4
- Drug uptake [24]: 0.05
- Drug uptake [25]: 0.1
- Ratio [26]: 1
- Drug uptake [27]: 0
- Drug uptake [28]: 0.01

SMILES: O=C(OCCC[18F])C1C2CCC(CC1c1cccc(/C=C\Br)c1)N2 (stereo not given)
- Drug uptake [29]: 2.35
- Drug uptake [30]: 2.68
- Drug uptake [31]: 2.23
- Drug uptake [32]: 2.16
- Drug uptake [33]: 2.93

SMILES: O=C(OCC[18F])C1C2CCC(CC1c1ccc(/C=C\I)cc1)N2 (stereo not given)
- Ratio [34]: 7.2
- Drug uptake [35]: 0.32
- Drug uptake [36]: 0
- Ratio [37]: 0.9
- Drug uptake [38]: 0
- Drug uptake [39]: 0.25
- Ratio [40]: 0.9
- Drug uptake [41]: 2.65
- Drug uptake [42]: 0.05
- Ratio [43]: 3.3
- Ratio [44]: 1.3
- Drug uptake [45]: 0.36
- Ratio [46]: 0.9
- Ratio [47]: 0
- Ratio [48]: 1
- Ratio [49]: 0
- Drug uptake [50]: 2.74
- Drug uptake [51]: 2.58
- Ratio [52]: 0
- Drug uptake [53]: 0.39
- Ki [54]: 28 nM
- Drug uptake [55]: 0.05
- Ratio [56]: 1.3
- Ratio [57]: 1
- Ratio [58]: 2.5
- Ratio [59]: 1
- Drug uptake [60]: 2.71
- Drug uptake [61]: 0.05
- Ratio [62]: 1.3
- Drug uptake [63]: 0.96
- Drug uptake [64]: 0.31
- Drug uptake [65]: 2.48
